ChEMBL document CHEMBL6078621, “Macrocyclic-based strategy in drug design: From lab to the clinic” (Eur J Med Chem, 2024)
One block for each compound: values may come before it. Starred links: 1 amine or outer side, 2 acyl side, 3 side chain; linkers in the order of their positions; H or OH if unused. Positions of bridges follow the written chain, without caps; N, C: chain ends. Non-standard residues stand in square brackets, D forms with d. Residues, ends and D or L forms follow the SMILES beside them. *: point of attachment. Phe(4-Cl) = N[C@@H](Cc1ccc(Cl)cc1)C(=O)O; 2Thi = N[C@@H](Cc1cccs1)C(=O)O; Agmatine = N=C(N)NCCCCN*; X1 = O=C(CCC[*:2])[*:1]; Mpa = O=C(O)CCS; NEt2 = CCN(CC)*

Assays:
[1] = Clearance in Sprague-Dawley rat at 0.5 mg/kg, iv by LC-MS/MS analysis; format: ADME, organism-based; settings: in vivo
[2] = in vitro; settings: human, liver microsomes
[3] = Solubility of the compound; format: physicochemical
[4] = Oral bioavailability in human; format: ADME, organism-based; settings: in vivo
[5] = Plasma protein binding in human; format: ADME, cell-free; settings: read-out: PPB
[6] = Half life in mouse; format: ADME, organism-based; settings: in vivo
[7] = Half life in rat; format: ADME; settings: in vivo
[8] = Half life in dog; format: ADME, Canis lupus familiaris; settings: in vivo
[9] = AUC in Sprague-Dawley rat at 10 mg/kg, po by LC-MS/MS analysis; format: ADME, organism-based; settings: in vivo
[10] = AUC in Sprague-Dawley rat at 2 mg/kg, iv by LC-MS/MS analysis; format: ADME, organism-based; settings: in vivo
[11] = Microsomal stability in human liver microsomes assessed as intrinsic clearance; format: ADME, Microsome
[12] = Oral bioavailability in Sprague-Dawley rat at 5 mg/kg by LC-MS/MS analysis; format: ADME, organism-based; settings: in vivo
[13] = AUC in Wistar rat; format: ADME; settings: in vivo
[14] = Cmax in human at 8 mg/kg, po; format: ADME, organism-based; settings: in vivo
[15] = Intrinsic clearance in human liver microsomes; format: ADME, Microsome
[16] = system: Huh-7; experiment: Cytotoxicity against human Huh-7 cells assessed as inhibition of cell viability incubated for 24 hrs by MTT assay; format: functional
[17] = Plasma clearance in Sprague-Dawley rat at 1 mg/kg, iv measured upto 24 hrs by LC-MS/MS analysis; format: ADME, organism-based

clearance [1]: 14 mL/min/kg
Structure (SMILES): CC(C)[C@@H]1NC(=O)[C@H](Cc2cccs2)NC(=O)[C@H](Cc2ccc(Cl)cc2)NC(=O)CCCSC[C@@H](C(=O)N2CCC[C@H]2C(=O)NCCCCNC(=N)N)NC(=O)[C@H](CC(N)=O)NC1=O ([Phe(4-Cl)][2Thi]VNCP-Agmatine; linker N-5 via X1)

clearance [1]: 9.6 mL/min/kg
bioavailability [12]: 31%
Structure (SMILES): CC(C)[C@@H]1NC(=O)[C@H](Cc2ccccc2)NC(=O)[C@H](Cc2ccc(O)cc2)NC(=O)CCSSC[C@@H](C(=O)N2CCC[C@H]2C(=O)N[C@H](CCCNC(=N)N)C(=O)NCC(N)=O)NC(=O)[C@H](CC(N)=O)NC1=O ([Mpa]YFVNCP[dR]G-NH2; disulfide 1-6)

clearance [1]: 42 mL/min/kg
Structure (SMILES): CCN(CC)C(=O)[C@@H](CCCNC(=N)N)NC(=O)[C@@H]1CCCN1C(=O)[C@@H]1CSCCCC(=O)N[C@@H](Cc2ccc(Cl)cc2)C(=O)N[C@@H](Cc2cccs2)C(=O)N[C@@H](C(C)C)C(=O)N[C@@H](CC(N)=O)C(=O)N1 ([Phe(4-Cl)][2Thi]VNCP[dR]-NEt2; linker N-5 via X1)

bioavailability [12]: 41%
Structure (SMILES): NC(=O)CC[C@@H]1NC(=O)[C@H](Cc2ccccc2)NC(=O)[C@H](Cc2ccc(O)cc2)NC(=O)CCSSC[C@@H](C(=O)N2CCC[C@H]2C(=O)N[C@H](CCCN=C(N)N)C(=O)NCC(N)=O)NC(=O)[C@H](CC(N)=O)NC1=O [DESMOPRESSIN]

Second part, the compound before the results:

Structure (SMILES): C1=C/COCc2cc(ccc2OCCN2CCCC2)Nc2nccc(n2)-c2cccc(c2)COC/1 [PACRITINIB]
half-life [2]: > 60 min
solubility [3]: > 150 µg/mL

Structure (SMILES): C[C@@H]1CCC[C@H](n2cnc(-c3cc(Cl)ccc3-n3cc(Cl)nn3)cc2=O)c2cc(ccn2)-c2c(cnn2C(F)F)NC1=O [MILVEXIAN]
bioavailability [4]: 18%

Structure (SMILES): CN1C/C=C/CCOc2cccc(c2)-c2ccnc(n2)Nc2cccc(c2)C1 [ZOTIRACICLIB]
fraction unbound [5]: 0.001

Structure (SMILES): C/C1=C/C=C/[C@H](C)[C@H](O)[C@@H](C)[C@@H](O)[C@@H](C)[C@H](OC(=O)O)[C@H](C)[C@@H](OO)/C=C/O[C@@]2(C)Oc3c(C)c(O)c4c(O)c(c(/C=N/N5CCC(N(C)C6([C@@H]7CCN(c8cc9c(C%10CC%10)cc(C(=O)O)c(=O)n9cc8F)C7)CC6)CC5)c(O)c4c3C2=O)CC1=O
half-life [6]: 24 min
half-life [7]: 24 min
half-life [8]: 96 min

Structure (SMILES): COc1ccc2c(O[C@@H]3C[C@H]4C(=O)N[C@]5(C(=O)NS(=O)(=O)C6CC6)C[C@H]5/C=C\CCCCN(C)C(=O)[C@@H]4C3)cc(-c3nc(C(C)C)cs3)nc2c1C
AUC [9]: 2.79 µM·h
AUC [10]: 5.21 µM·h
CLH [11]: 6 µL/min/mg

Structure (SMILES): C[C@H]1Oc2cc(cnc2N)-c2c(nn(C)c2C#N)CN(C)C(=O)c2ccc(F)cc21 [LORLATINIB]
AUC [13]: 3.48 µM·h

Structure (SMILES): C[C@@H]1CN[C@@H](C2CC2)C(=O)N(C)[C@H](C)C(=O)N[C@H](Cc2ccc(F)cc2)C(=O)NCCCc2ccccc2O1 [ULIMORELIN]
Cmax [14]: 1400 nM

Structure (SMILES): COc1ccc2c(O[C@@H]3C[C@H]4C(=O)N[C@]5(C(=O)NS(=O)(=O)C6CC6)C[C@H]5/C=C\CCCCN(C)C(=O)[C@@H]4C3)cc(-c3ccccc3)nc2c1
CLH [15]: 46 µL/min/mg
CC50 [16]: > 20 µM
clearance [17]: 46.5 mL/min/kg
